# Measurements: BindingDB's records for doi:10.1124/jpet.104.066092 (Wyeth Research, 2004)
# pKi: −log10 of the molar value.
# Target: Glutamate receptor ionotropic, NMDA 1 (Rattus norvegicus, UniProt P35439)
smiles,measurement,value
O=C(O)[C@@H]1C[C@H](CP(=O)(O)O)CCN1 [Selfotel],pKi,< 5.00
